For the data set the following is noted: hairless mouse skin, 35° C., mean and SD of three.

Like-named read-outs stand apart in the source and are kept apart here.

As to `CCCN1CCCC[C@H]1C(=O)Nc1c(C)cccc1C` [Ropivacaine], the “Average flux (steady-state flux of ropivacaine)” value is 1.2 ± 0.7 mcg/cm^2/h (saturated in Glycerin); 11 ± 2 mcg/cm^2/h (saturated in ISA (isostearic acid)); 8.9 ± 0.6 mcg/cm^2/h (saturated in Mineral Oil); 26 ± 8 mcg/cm^2/h (saturated in Span 20); 2.4 ± 0.1 mcg/cm^2/h (saturated in Tween 20).
